Test results published in patent US20250388565A1, “ESTROGEN RECEPTOR ALPHA DEGRADERS AND METHODS OF USE THEREOF” (Relay Therapeutics, Inc., priority 2022, published 2025).

Each compound was assayed against T1, ERα protein (HiBiT-tagged) in ESR1_HiBiT KI MCF7 cells (Homo sapiens, UniProt P03372) (assay: Nano Glo HiBiT Lytic Degradation Assay). Settings: 6 hours with compound, 14-point dose response 1:3, bell-shape curve fit, half-maximal effect of first Hill model, read-out: MCF7 ESR1 HiBiT - (DC50).
T1 sequence (P03372 1-595): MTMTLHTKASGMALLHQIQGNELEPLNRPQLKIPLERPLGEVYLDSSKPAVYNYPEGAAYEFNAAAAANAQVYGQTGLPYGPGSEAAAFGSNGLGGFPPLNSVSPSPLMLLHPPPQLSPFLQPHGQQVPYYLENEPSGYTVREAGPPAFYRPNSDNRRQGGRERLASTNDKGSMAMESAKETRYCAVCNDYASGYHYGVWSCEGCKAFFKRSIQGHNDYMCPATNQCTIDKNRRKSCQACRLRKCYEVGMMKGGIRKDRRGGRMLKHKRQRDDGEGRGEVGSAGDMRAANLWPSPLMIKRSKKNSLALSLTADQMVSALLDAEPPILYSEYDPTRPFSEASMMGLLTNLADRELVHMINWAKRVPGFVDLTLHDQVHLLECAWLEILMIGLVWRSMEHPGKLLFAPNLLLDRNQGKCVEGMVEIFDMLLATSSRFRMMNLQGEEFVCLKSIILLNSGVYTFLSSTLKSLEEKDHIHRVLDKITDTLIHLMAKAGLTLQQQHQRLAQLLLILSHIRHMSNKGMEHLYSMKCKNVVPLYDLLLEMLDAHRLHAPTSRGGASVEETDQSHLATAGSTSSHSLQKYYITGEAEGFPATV
Assay type: cell-based
Description: Selected compounds of the present disclosure were tested in a Nano Glo HiBiT Lytic Degradation Assay to measure the level of ERα protein degradation in MCF7 cells.
Cell culture: ESR1_HiBiT KI MCF7 cells were maintained in growth media without antibiotics. Cells were maintained in exponential growth phase, between 40% and 90% confluency.
Cell seeding: Cells were counted using a Vi-Cell and seeded in a 384-well flat-bottom microplate (cell culture-treated) at 4000 cells/well in 25 μL of growth medium using a BioTek MultiFlo Multimode Dispenser. Plates were incubated for 24 h at 37° C., 5% CO2, >95% relative humidity.
Compound preparation: Compounds were screened as 14-point dose response curves 1:3 dilutions. DMSO is used as the vehicle control and all wells were normalized to the same final DMSO concentration (0.1% v/v). Compounds were dosed using an Echo Acoustic Liquid Handler, 25 nL of 1000× (10 mM top concentration) DMSO stock/well. Cells were incubated with compounds for 6 hours at 37° C., 5% CO2, >95% relative humidity. Each compound was run in duplicate.
Nano Glo HiBiT Lytic Degradation Assay: HiBiT-tagged ERα protein levels were quantified using a Nano Glo HiBiT Lytic Degradation Assay following the manufacturer's protocol. Briefly, the Nano-Glo® HiBiT Lytic Reagent was prepared by diluting the LgBiT Protein reagent (1:100) and the Nano-Glo® HiBiT Lytic Substrate (1:50) into Nano-Glo® HiBiT Lytic Buffer at room temperature. The 384-well microplate were equilibrated to room temperature and 25 μL of Nano-Glo® HiBiT Lytic Reagent was added to each well. Samples were mixed by placing the 384-well microplate on an orbital shaker for 10 minutes. Luminescence was measured using an EnVision 2105 Multimode Plate Reader.
Data processing and analysis: Background signal (wells containing growth medium without cells) was subtracted from individual relative light units (RLU) values and the resulting values were normalized to the DMSO control well values. Dose responses were analyzed with Genedata Screener® using a bell-shape curve fit and the concentrations corresponding to the half-maximal effect of the first Hill model were used as DC50 values.

| SMILES | DC50 [nM] |
| --- | --- |
| O=C1CC[C@H](N2Cc3cc(N4CCN(CC5CCN(c6ccc([C@H]7c8ccc(C(=O)O)cc8CC[C@H]7c7ccccc7)cc6)CC5)CC4)ccc3C2=O)C(=O)N1 (single isomer, unassigned) [Compound I-1] | 3 |
| O=C1CC[C@H](N2Cc3cc(N4CCN(CC5CCN(c6ccc([C@@H]7c8ccc(C(=O)O)cc8CC[C@@H]7c7ccccc7)cc6)CC5)CC4)ccc3C2=O)C(=O)N1 (single isomer, unassigned) [Compound I-2] | ≥ 10000 |
| O=C1CCC(c2ccc(N3CCN(CCC4CCN(c5ccc([C@@H]6c7ccc(O)cc7CC[C@@H]6c6ccccc6)cc5)CC4)CC3)cc2)C(=O)N1 (single isomer, unassigned) [Compound I-8] | ≥ 10000 |
| Cn1nccc1[C@H]1CCc2cc(O)ccc2[C@H]1c1ccc(N2CCC(CN3CCN(c4ccc5c(c4)CN([C@H]4CCC(=O)NC4=O)C5=O)CC3)CC2)cc1 (single isomer, unassigned) [Compound I-24] | ≥ 10000 |
| Cn1nccc1[C@@H]1CCc2cc(O)ccc2[C@@H]1c1ccc(N2CCC(CN3CCN(c4ccc5c(c4)CN([C@H]4CCC(=O)NC4=O)C5=O)CC3)CC2)cc1 (single isomer, unassigned) [Compound I-25] | 0.02 |
| Cn1ccc([C@H]2CCc3cc(O)ccc3[C@H]2c2ccc(N3CCC(CN4CCN(c5ccc6c(c5)CN([C@H]5CCC(=O)NC5=O)C6=O)CC4)CC3)cc2)n1 (single isomer, unassigned) [Compound I-28] | ≥ 10000 |
| Cn1ccc([C@@H]2CCc3cc(O)ccc3[C@@H]2c2ccc(N3CCC(CN4CCN(c5ccc6c(c5)CN([C@H]5CCC(=O)NC5=O)C6=O)CC4)CC3)cc2)n1 (single isomer, unassigned) [Compound I-29] | 0.14 |
| O=C1CC[C@H](N2Cc3cc(N4CCN(CC5CCN(c6ccc([C@@H]7c8ccc(O)cc8CO[C@@H]7c7ccc(C(F)(F)F)cc7)cc6)CC5)CC4)ccc3C2=O)C(=O)N1 (single isomer, unassigned) [Compound I-36] | 80 |
| O=C1CCC(c2ccc(N3CCN(C4CCN(c5ccc([C@@H]6c7ccc(O)cc7CC[C@@H]6c6ccccc6)cc5)CC4)CC3)cc2)C(=O)N1 (single isomer, unassigned) [Compound I-40] | 370 |
| O=C1CCC(c2ccc(N3CCN(C4CCN(c5ccc([C@H]6c7ccc(O)cc7CC[C@H]6c6ccccc6)cc5)CC4)CC3)cc2)C(=O)N1 (single isomer, unassigned) [Compound I-41] | 370 |
| O=C1CCC(c2ccc(N3CCN(CCC4CCN(c5ccc([C@H]6c7ccc(O)cc7CC[C@H]6c6ccccc6)cc5)CC4)CC3)cc2)C(=O)N1 (single isomer, unassigned) [Compound I-42] | ≥ 10000 |
| O=C1CC[C@H](N2Cc3cc(N4CCN(CC5CCN(c6ccc([C@H]7c8ccc9[nH]ncc9c8CC[C@H]7c7ccccc7)cc6)CC5)CC4)ccc3C2=O)C(=O)N1 (single isomer, unassigned) [Compound I-44] | 7 |
| O=C1CC[C@@H](N2Cc3cc(N4CCC(CN5CCC(n6cc([C@@H]7c8ccc(O)cc8CC[C@@H]7c7ccccc7)cn6)CC5)CC4)ccc3C2=O)C(=O)N1 (single isomer, unassigned) [Compound I-48] | ≥ 10000 |
| O=C1CCC(N2Cc3cc(N4CCN(CC5CCN(c6ccc([C@@H]7c8ccc(O)cc8CC[C@@H]7C7CCCC7)cc6)CC5)CC4)ccc3C2=O)C(=O)N1 (single isomer, unassigned) [Compound I-52] | 9 |
| O=C1CCC(N2Cc3cc(N4CCN(CC5CCN(c6ccc([C@H]7c8ccc(O)cc8CC[C@H]7C7CCCC7)cc6)CC5)CC4)ccc3C2=O)C(=O)N1 (single isomer, unassigned) [Compound I-53] | 0.92 |
| O=C1CCC(N2Cc3cc(N4CCN(CC5CCN(c6ccc([C@@H]7c8ccc(O)cc8CC[C@@H]7C7CCC(F)(F)CC7)cc6)CC5)CC4)ccc3C2=O)C(=O)N1 (single isomer, unassigned) [Compound I-54] | 742 |
| O=C1CC[C@H](N2Cc3cc(N4CCN(CC5CCN(c6ccc([C@H]7c8ccc(O)cc8CC[C@H]7C7CCC(F)(F)CC7)cc6)CC5)CC4)ccc3C2=O)C(=O)N1 (single isomer, unassigned) [Compound I-55] | 0.41 |
| O=C1CC[C@H](N2Cc3cc(N4CCN(CC5CCN(c6ccc([C@H]7c8ccc(O)cc8CO[C@H]7c7ccc(C(F)(F)F)cc7)cc6)CC5)CC4)ccc3C2=O)C(=O)N1 (single isomer, unassigned) [Compound I-56] | 7.75 |

The next lines start with the values.

| DC50 [nM] | SMILES |
| --- | --- |
| 19 | O=C1CC[C@H](N2Cc3cc(N4CCN(CC5CCN(c6ccc([C@H]7c8ccc(O)cc8CC[C@@]78CCc7ccccc78)cc6)CC5)CC4)ccc3C2=O)C(=O)N1 (relative stereo) [Compound I-261, (S)-3-(5-(4-((1-(4-((1S*,1′R*)-6′-hydroxy-2,3,3′,4′-tetrahydro-1′H-spirofindene-1,2′-naphthalen]-1′-yl)phenyl)piperidin-4-yl)methyl)piperazin-1-yl)-1-oxoisoindolin-2-yl)piperidine-2,6-dione] |
| 7 | O=C1CC[C@H](N2Cc3cc(N4CCN(CC5CCN(c6ccc([C@@H]7c8ccc(O)cc8CC[C@@H]7c7ccc8c(c7)CC8)cc6)CC5)CC4)ccc3C2=O)C(=O)N1 (single isomer, unassigned) [Compound I-57] |
| 0.048 | O=C1CC[C@H](N2Cc3cc(N4CCN(CC5CCN(c6ccc([C@H]7c8ccc(O)cc8CC[C@H]7c7ccc8c(c7)CC8)cc6)CC5)CC4)ccc3C2=O)C(=O)N1 (single isomer, unassigned) [Compound I-58] |
| 906 | O=C1CC[C@H](N2Cc3cc(N4CCN(CC5CCN(c6ccc([C@@H]7c8ccc(O)cc8CC[C@@H]7c7ccc8c(c7)CCCC8)cc6)CC5)CC4)ccc3C2=O)C(=O)N1 (single isomer, unassigned) [Compound I-59] |
| 1 | O=C1CC[C@H](N2Cc3cc(N4CCN(CC5CCN(c6ccc([C@H]7c8ccc(O)cc8CC[C@H]7c7ccc8c(c7)CCCC8)cc6)CC5)CC4)ccc3C2=O)C(=O)N1 (single isomer, unassigned) [Compound I-60] |
| ≥ 10000 | O=C1CC[C@H](N2Cc3cc(N4CCN(CC5CCN(c6ccc([C@H]7c8ccc(O)cc8CC[C@H]7c7cccc8c7CCCC8)cc6)CC5)CC4)ccc3C2=O)C(=O)N1 (single isomer, unassigned) [Compound I-61] |
| 2 | O=C1CC[C@H](N2Cc3cc(N4CCN(CC5CCN(c6ccc([C@@H]7c8ccc(O)cc8CC[C@@H]7c7cccc8c7CCCC8)cc6)CC5)CC4)ccc3C2=O)C(=O)N1 (single isomer, unassigned) [Compound I-62] |
| 0.33 | O=C1CCC(N2Cc3cc(N4CCN(CC5CCN(c6ccc([C@@H]7c8ccc(O)cc8CC[C@@H]7c7cccc8c7CC8)cc6)CC5)CC4)ccc3C2=O)C(=O)N1 (single isomer, unassigned) [Compound I-100] |
| 8 | O=C1CCC(N2Cc3cc(N4CCN(CC5CCN(c6ccc([C@H]7c8ccc(O)cc8CC[C@H]7c7cccc8c7CC8)cc6)CC5)CC4)ccc3C2=O)C(=O)N1 (single isomer, unassigned) [Compound I-101] |
| ≥ 10000 | O=C1CC[C@H](N2Cc3cc(N4CCN(CC5CCN(c6ccc([C@H]7CCCc8cc(O)ccc87)cc6)CC5)CC4)ccc3C2=O)C(=O)N1 (single isomer, unassigned) [Compound I-102] |
| ≥ 10000 | O=C1CC[C@H](N2Cc3cc(N4CCN(CC5CCN(c6ccc([C@@H]7CCCc8cc(O)ccc87)cc6)CC5)CC4)ccc3C2=O)C(=O)N1 (single isomer, unassigned) [Compound I-103] |
| 45.8 | CC1(C)CCC([C@H]2CCc3cc(O)ccc3[C@H]2c2ccc(N3CCC(CN4CCN(c5ccc6c(c5)CN([C@H]5CCC(=O)NC5=O)C6=O)CC4)CC3)cc2)CC1 (single isomer, unassigned) [Compound I-105] |
